# Results: patent US8551997B2, “Structural-based inhibitors of the glutathione binding site in aldose reductase, methods of screening therefor and methods of use” (The Board of Regents of the University of Texas System, priority 2004, dated 2013)
# Where two headings read alike, the source gives them in different places.
# Assays:
# C57BL/6 mice = test: LPS-induced cytokines in serum and heart of mice; format: in vivo, mouse
# Procedure: At the indicated times, TNF-a, IL-6, IL-12, interferon (IFN)-g, IL-1b, and monocyte chemo attractant protein (MCP)-1 levels in serum and in heart homogenates were determined (FIGS. 6A-6D). Prostaglandin E2 (PGE-2), cyclo-oxygenase 2 (COX-2), and nitrate levels were measured separately (FIG. 6E). Solid symbols, values from the mice injected with LPS; open symbols, values from the mice treated with LPS and sorbinil.
# In sorbinil-treated mice, however, serum cytokine levels increased only 2-fold, began declining within 4 h, and returned to baseline levels within 12 h.
# mice = details: for survival: sorbinil pre-treatment
# Procedure: Therefore increasing doses of LPS was administered to determine the dose at which fifty percent lethality occurred (LD50) in the presence or absence of aldose reductase inhibitor (ARI) in order to determine if ARI protected mice for LPS-induced death (FIG. 7D).
# [1] = sorbinil pretreatment, LPS 4 mg/kg
substance,measurement,setting,value
"(S)-6-fluorospiro[chroman-4,4′-imidazolidine]-2,5′-dione [sorbinil]",maladaptive systemic inflammatory response in serum,C57BL/6 mice; sorbinil 2 h after LPS exposure,blunted
same,time at which serum cytokine levels began declining,C57BL/6 mice; [1],≤ 4 h
same,time at which serum cytokine levels returned to baseline,C57BL/6 mice; [1],≤ 12 h
same,increase of serum cytokine levels after LPS,"C57BL/6 mice; sorbinil pretreatment, LPS 4 mg/kg peritoneally",2 fold
same,LD50 for LPS with sorbinil post-treatment,"mice; sorbinil 2 h after LPS, 48 h survival",20 mg/kg
same,LD50 for LPS with sorbinil pre-treatment,"mice; sorbinil 24 h before LPS, 48 h survival",24 mg/kg
same,survival,mice; LPS 14 mg/kg,approximately 90%
same,survival,mice; LPS 24 mg/kg,over 60%
